This is an account of results in patent publication US20200054587A1, “METHODS AND MATERIALS FOR REDUCING SCARRING ASSOCIATED WITH ARTHROFIBROSIS OR TENDON INJURY” (Mayo Foundation for Medical Education and Research, priority 2018, published 2020).

Like-named read-outs stand apart in the source and are kept apart here.

One series concerns knee arthrofibrosis. Put plainly: Rabbit knee arthrofibrosis model, passive range of motion. The following applies: 50 mg in gel injected into the joint capsule during surgery. It is filed as in vivo. The protocol:
(§1) All rabbits underwent luxation (hyperextension) and arthrodesis (fixation) of the operative knee. […] After eight weeks, the arthrodesis was reversed. Rabbits were allowed to roam free in individual spaces (1 m^2) for the entire 24 week duration. Angles of passive extension of operative and contralateral, non-operative limbs were measured at 8, 10, 16, and 24 weeks, using a validated dynamic load cell device. Rabbits were sacrificed at 24 weeks and samples of the posterior capsule were taking from the operative and contralateral, non-operative knee. Data from mRNA extraction and qPCR were obtained to analyze expression of alpha-1 collagen (COL1A1, COL2A1 and COL5A1) and alpha smooth muscle actin (ACTA2), all of which are involved in fibrosis.

The subject of series [1] is COL1A1, COL2A1 and COL5A1. Put plainly: qPCR of collagen genes in posterior capsule tissue, rabbit knee arthrofibrosis model. It is filed as in vivo. The following applies: rabbit posterior capsule tissue at 24 weeks, FIG. 3A. As to the method:
as §1
(Real-time PCR tracks product formation cycle by cycle.)

A further series relates to ACTA2. Nature of the series: qPCR of alpha smooth muscle actin gene in posterior capsule tissue, rabbit knee arthrofibrosis model. It is filed as in vivo. The following applies: rabbit posterior capsule tissue at 24 weeks, FIG. 3B. As to the method: as §1
For the next series, the system named is flexor tendon injury. Nature of the series: In vivo turkey flexor tendon injury model. The note with it: 50 mg powder applied to repaired tendon, 6 weeks. The source says: Flexor tendon injuries are common and pose a clinical challenge for functional restoration. Postoperative repair rupture and scar formation results in prolonged work disability for patients. […] Twelve male turkeys underwent surgical flexor tendon cut and repair. […] After sacrifice, digits were collected and analyzed for adhesion formation as well as healing at the macrolevel.

Series [2] relates to adipose tissue-derived mesenchymal stem cells (aMSC). Put plainly: Live/dead cytotoxicity staining (Calcein AM / Ethidium Homdimer-1). The following applies: after initial exposure, absence of any dead-cell staining, FIG. 1B.
For series [3] the following is noted: cited from earlier work.

Take `N=C(N)c1ccc(OCCCCCOc2ccc(C(=N)N)cc2)cc1` [pentamidine, 4,4′-[pentane-1,5-diylbis(oxy)]dibenzenecarboximid-amide]: the “passive range of motion (ROM), pentamidine vs control rabbits” value with knee arthrofibrosis (24 weeks, p=0.0082) is “statistically significant difference”; in the series on knee arthrofibrosis (eight weeks, p=0.0303) it was “statistically significant difference”. Further, the “collagen (COL1A1, COL2A1 and COL5A1) expression vs control tissue” value in series [1] is reported as “decreased”. Also, in the series with ACTA2, the “ACTA2 gene expression vs control tissue” value is reported as “decreased”. Also, the “post-operative scar formation (gross anatomy) vs control” value with flexor tendon injury is listed as “marked reduction”. In the series on flexor tendon injury (all six treated turkeys, FIG. 4), the “adhesion score, 0 (no adhesion) to 8 (very severe)” value is reported as “significantly reduced”. Besides, the “cytotoxic effect (Ethidium Homdimer-1 staining)” value in series [2] is “no cytotoxic effect”.

As to `N=C(N)c1ccc(OCCCCCOc2ccc(C(=N)N)cc2)cc1` [Pentamidine isethionate, 4,4-[1,5-pentanediylbis(oxy)]bis-benzenecarboximidamid], the solubility result in series [3] (acetone) is “insoluble”; in series [3] (alcohol) it was “soluble”; in series [3] (chloroform) it was “insoluble”; in series [3] (ether) it was “insoluble”; in series [3] (glycerin), “soluble”; in series [3] (water), “soluble”.
